# Legend:
# Assay type in all cases: in vivo
# corn (Zea mays) = test: Test A postemergence, visual injury rating; settings: 0 is no effect, 100 is complete control
# Method in brief: (§1)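 Scoring: eye-based comparison with untreated controls, 0 for no effect through 100 for complete control, at about day 10. Treatments: directed soil spray preemergence; foliar spray postemergence on 2–10 cm plants at the one- to two-leaf stage. Medium: loam soil with sand.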
# [1] = system: giant foxtail (Setaria faberii); test: Test A postemergence, visual injury rating; settings: 0 is no effect, 100 is complete control
# Method in brief: as §1
# kochia (Kochia scoparia) = test: Test A postemergence, visual injury rating; settings: 0 is no effect, 100 is complete control
# Method in brief: as §1
# [2] = system: Italian ryegrass (Lolium multiflorum); test: Test A postemergence, visual injury rating; settings: 0 is no effect, 100 is complete control
# Method in brief: as §1
# [3] = system: barnyardgrass (Echinochloa crus-galli); test: Test A postemergence, visual injury rating; settings: 0 is no effect, 100 is complete control
# Method in brief: as §1
# [4] = system: pigweed (Amaranthus retroflexus); test: Test A postemergence, visual injury rating; settings: 0 is no effect, 100 is complete control
# Method in brief: as §1
# [5] = system: ragweed (common ragweed, Ambrosia elatior); test: Test A postemergence, visual injury rating; settings: 0 is no effect, 100 is complete control
# Method in brief: as §1
# [6] = system: blackgrass (Alopecurus myosuroides); test: Test A postemergence, visual injury rating; settings: 0 is no effect, 100 is complete control
# Method in brief: as §1
# [7] = system: wheat (Triticum aestivum); test: Test A postemergence, visual injury rating; settings: 0 is no effect, 100 is complete control
# Method in brief: as §1
# [8] = system: galium (catchweed bedstraw, Galium aparine); test: Test A postemergence, visual injury rating; settings: 0 is no effect, 100 is complete control
# Method in brief: as §1
# [9] = system: wheat (winter wheat, Triticum aestivum); test: Test C postemergence, plant response rating; settings: for Plant response rating, Wheat: scale 0 to 100; for Wheat plant response rating: scale 0 to 100 (0 no effect, 100 complete control)
# Source text: (§2) Seeds of plant species selected from blackgrass (Alopecurus myosuroides), ryegrass, Italian (Italian ryegrass, Lolium multiflorum), wheat (winter wheat, Triticum aestivum), galium (catchweed bedstraw, Galium aparine), corn (Zea mays), crabgrass, large (large crabgrass, Digitaria sanguinalis), foxtail, giant (giant foxtail, Setaria faberii), johnsongrass (Sorghum halepense), lambsquarters (Chenopodium album), morningglory (Ipomoea coccinea), nutsedge, yellow (yellow nutsedge, Cyperus esculentus), pigweed (Amaranthus retroflexus), ragweed (common ragweed, Ambrosia elatior), soybean (Glycine max), barnyardgrass (Echinochloa crus-galli), oilseed rape (Brassica napus), pigweed, palmer (palmer pigweed, Amaranthus palmeri), waterhemp (common waterhemp, Amaranthus rudis), velvetleaf (Abutilon theophrasti), kochia (Kochia scoparia), surinam grass (Brachiaria decumbens), nightshade (eastern black nightshade, Solanum ptycanthum), wild poinsettia (Euphorbia heterophylla), windgrass (Apera spica-venti), and oat, wild (wild oat Avena fatua), were planted into a blend of loam soil and sand or a silt loam soil and treated preemergence with test chemicals formulated in a non-phytotoxic solvent mixture which included a surfactant.
# (§3) At the same time, plants selected from these crop and weed species and also chickweed (common chickweed, Stellaria media), buckwheat, wild (wild buckwheat, Polygonum convolvulus), wild mustard (Sinapis arvensis), field poppy (Papaver rhoeas), field violet (Viola arvensis), geranium, cutleaf (cutleaf geranium, Geranium dissectum), Canada thistle (Cirsium arvense), and speedwell (bird's-eye speedwell, Veronica persica), were planted in pots containing Sunshine Redi-Earth® planting medium comprising spaghnum peat moss, vermiculite, starter nutrients and dolomitic limestone and treated with postemergence applications of test chemicals formulated in the same manner. Plants ranged in height from 2 to 18 cm (1- to 4-leaf stage) for postemergence treatments. Treated plants and controls were maintained in a greenhouse for 13 to 15 d, after which time all species were compared to controls and visually evaluated. Plant response ratings, summarized in Table C, are based on a scale of 0 to 100 where 0 is no effect and 100 is complete control. A dash (-) response means no test result.
# [10] = system: ryegrass, Italian (Italian ryegrass, Lolium multiflorum); test: Test C postemergence, plant response rating; settings: for Plant response rating, Ryegrass, Italian: scale 0 to 100; for Ryegrass, Italian plant response rating: scale 0 to 100 (0 no effect, 100 complete control)
# Source text: as §2, §3
# soybean (Glycine max) = test: Test C postemergence, plant response rating; settings: for Plant response rating, Soybean: scale 0 to 100; for Soybean plant response rating: scale 0 to 100 (0 no effect, 100 complete control)
# Source text: as §2, §3
# [11] = system: chickweed (common chickweed, Stellaria media); test: Test C postemergence, plant response rating; settings: for Plant response rating, Chickweed: scale 0 to 100; for Chickweed plant response rating: scale 0 to 100 (0 no effect, 100 complete control)
# Source text: as §2, §3
# [12] = system: oilseed rape (Brassica napus); test: Test C postemergence, plant response rating; settings: for Plant response rating, Oilseed Rape: scale 0 to 100; for Oilseed Rape plant response rating: scale 0 to 100 (0 no effect, 100 complete control)
# Source text: as §2, §3
# [13] = system: blackgrass (Alopecurus myosuroides); test: Test C postemergence, plant response rating; settings: for Plant response rating, Blackgrass: scale 0 to 100; for Blackgrass plant response rating: scale 0 to 100 (0 no effect, 100 complete control)
# Source text: as §2, §3
# [14] = system: waterhemp (common waterhemp, Amaranthus rudis); test: Test C postemergence, plant response rating; settings: for Plant response rating, Waterhemp: scale 0 to 100; for Waterhemp plant response rating: scale 0 to 100 (0 no effect, 100 complete control)
# Source text: as §2, §3
# [15] = system: galium (catchweed bedstraw, Galium aparine); test: Test C postemergence, plant response rating; settings: for Plant response rating, Galium: scale 0 to 100; for Galium plant response rating: scale 0 to 100 (0 no effect, 100 complete control)
# Source text: as §2, §3
# [16] = system: foxtail, giant (giant foxtail, Setaria faberii); test: Test C postemergence, plant response rating; settings: for Plant response rating, Foxtail, Giant: scale 0 to 100; for Foxtail, Giant plant response rating: scale 0 to 100 (0 no effect, 100 complete control)
# Source text: as §2, §3
smiles,measurement,setting,value
N#CCCOC(=O)c1c(Br)cccc1Oc1ncc(Cl)cn1 [Compound 7],Corn plant response rating (0 to 100 scale),corn (Zea mays); 125 g ai/ha,10
same,Corn plant response rating (0 to 100 scale),corn (Zea mays); 500 g ai/ha,70
same,"Foxtail, Giant plant response rating (0 to 100 scale)",[1]; 125 g ai/ha,50
same,"Foxtail, Giant plant response rating (0 to 100 scale)",[1]; 500 g ai/ha,100
same,Kochia plant response rating (0 to 100 scale),kochia (Kochia scoparia); 125 g ai/ha,100
same,Kochia plant response rating (0 to 100 scale),kochia (Kochia scoparia); 500 g ai/ha,100
same,"Ryegrass, Italian plant response rating (0 to 100 scale)",[2]; 125 g ai/ha,20
same,"Ryegrass, Italian plant response rating (0 to 100 scale)",[2]; 500 g ai/ha,70
same,Barnyardgrass plant response rating (0 to 100 scale),[3]; 125 g ai/ha,30
same,Barnyardgrass plant response rating (0 to 100 scale),[3]; 500 g ai/ha,90
same,Pigweed plant response rating (0 to 100 scale),[4]; 125 g ai/ha,100
same,Pigweed plant response rating (0 to 100 scale),[4]; 500 g ai/ha,100
same,Ragweed plant response rating (0 to 100 scale),[5]; 125 g ai/ha,40
same,Ragweed plant response rating (0 to 100 scale),[5]; 500 g ai/ha,90
same,Blackgrass plant response rating (0 to 100 scale),[6]; 125 g ai/ha,30
same,Blackgrass plant response rating (0 to 100 scale),[6]; 500 g ai/ha,80
same,Wheat plant response rating (0 to 100 scale),[7]; 125 g ai/ha,0
same,Wheat plant response rating (0 to 100 scale),[7]; 500 g ai/ha,20
same,Galium plant response rating (0 to 100 scale),[8]; 125 g ai/ha,100
same,Galium plant response rating (0 to 100 scale),[8]; 500 g ai/ha,100
same,"Plant response rating, Wheat",[9]; 16 g ai/ha,0
same,"Plant response rating, Wheat",[9]; 31 g ai/ha,0
same,Wheat plant response rating,[9]; 62 g ai/ha,5
same,Wheat plant response rating,[9]; 125 g ai/ha,5
same,"Plant response rating, Ryegrass, Italian",[10]; 16 g ai/ha,10
same,"Plant response rating, Ryegrass, Italian",[10]; 31 g ai/ha,0
same,"Ryegrass, Italian plant response rating",[10]; 62 g ai/ha,30
same,"Ryegrass, Italian plant response rating",[10]; 125 g ai/ha,30
same,"Plant response rating, Soybean",soybean (Glycine max); 16 g ai/ha,25
same,"Plant response rating, Soybean",soybean (Glycine max); 31 g ai/ha,25
same,Soybean plant response rating,soybean (Glycine max); 62 g ai/ha,40
same,Soybean plant response rating,soybean (Glycine max); 125 g ai/ha,70
same,"Plant response rating, Chickweed",[11]; 16 g ai/ha,5
same,"Plant response rating, Chickweed",[11]; 31 g ai/ha,5
same,Chickweed plant response rating,[11]; 62 g ai/ha,30
same,Chickweed plant response rating,[11]; 125 g ai/ha,50
same,"Plant response rating, Oilseed Rape",[12]; 16 g ai/ha,0
same,"Plant response rating, Oilseed Rape",[12]; 31 g ai/ha,0
same,Oilseed Rape plant response rating,[12]; 62 g ai/ha,0
same,Oilseed Rape plant response rating,[12]; 125 g ai/ha,5
same,"Plant response rating, Blackgrass",[13]; 16 g ai/ha,0
same,"Plant response rating, Blackgrass",[13]; 31 g ai/ha,0
same,Blackgrass plant response rating,[13]; 62 g ai/ha,0
same,Blackgrass plant response rating,[13]; 125 g ai/ha,5
same,"Plant response rating, Waterhemp",[14]; 16 g ai/ha,35
same,"Plant response rating, Waterhemp",[14]; 31 g ai/ha,70
same,Waterhemp plant response rating,[14]; 62 g ai/ha,60
same,Waterhemp plant response rating,[14]; 125 g ai/ha,65
same,"Plant response rating, Galium",[15]; 16 g ai/ha,0
same,"Plant response rating, Galium",[15]; 31 g ai/ha,0
same,Galium plant response rating,[15]; 62 g ai/ha,10
same,Galium plant response rating,[15]; 125 g ai/ha,40
same,"Plant response rating, Foxtail, Giant",[16]; 16 g ai/ha,5
same,"Plant response rating, Foxtail, Giant",[16]; 31 g ai/ha,5
same,"Foxtail, Giant plant response rating",[16]; 62 g ai/ha,10
same,"Foxtail, Giant plant response rating",[16]; 125 g ai/ha,15
